Data reported in US10414811B2, “Protease-resistant lipidated GLP-1 analogs” (MEDIMMUNE LIMITED, priority 2015, dated 2019).
Where two headings read alike, the source gives them in different places. Numbered stars: 1 amine (or outer) side, 2 acyl side, 3 side chain; on linkers, the order of the positions; unused ones are H or OH. Square brackets hold non-standard residues; d marks the D form. Side chains are listed from the residue outwards. Peptide text beside a SMILES is read from it. * marks the point of attachment. γGlu = O=C(O)[C@H](CCC(=O)[*:2])N[*:1]; αMeF = C[C@](N)(Cc1ccccc1)C(=O)O; αMeK = C[C@](N)(CCCCN)C(=O)O; Lauroyl = CCCCCCCCCCCC(=O)*; αMeS = C[C@](N)(CO)C(=O)O; Nle = CCCC[C@H](N)C(=O)O; AEEA = NCCOCCOCC(=O)O; Aib = CC(C)(N)C(=O)O

Columns and labels:
Assay type in all cases: cell-based
[1] = molecular target: T1, human GLP-1 receptor (GLP-1R) (Homo sapiens, UniProt P43220); experiment: cAMP assay, human GLP-1R cells
T1 construct: expressed in transfected cells
T1 sequence (P43220 24-463): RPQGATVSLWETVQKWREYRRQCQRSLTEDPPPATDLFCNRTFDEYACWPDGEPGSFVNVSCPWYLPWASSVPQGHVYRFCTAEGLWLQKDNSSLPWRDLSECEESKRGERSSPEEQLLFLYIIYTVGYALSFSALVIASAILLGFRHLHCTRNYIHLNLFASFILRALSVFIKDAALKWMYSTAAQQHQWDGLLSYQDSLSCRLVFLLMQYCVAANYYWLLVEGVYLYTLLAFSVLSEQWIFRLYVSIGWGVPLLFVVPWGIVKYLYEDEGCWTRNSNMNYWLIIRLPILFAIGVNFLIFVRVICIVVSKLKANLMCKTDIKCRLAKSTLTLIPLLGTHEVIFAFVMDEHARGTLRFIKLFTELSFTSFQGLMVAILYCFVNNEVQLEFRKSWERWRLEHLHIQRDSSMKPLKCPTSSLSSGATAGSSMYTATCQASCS
How it was run: (§1)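 Peptide-stimulated cAMP measured by two-step HTRF after a 30 min room-temperature incubation with receptor-expressing cells (hGLP-1R, hGIPR at 1×10^5 cells/ml; hGCGR at 2×10^5 cells/ml). Duplicate dilutions; EC50 from 4-parameter logistic fit of % Delta F.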

[2] = molecular target: T2, GLP-1R (INS1e assay) (Rattus norvegicus, UniProt P32301); experiment: INS1e assay, cAMP activity at GLP-1R; conditions: bis-lipidated peptides
T2 construct: endogenous in cells; host or cells: INS-1E cells
T2 sequence (P32301 22-463): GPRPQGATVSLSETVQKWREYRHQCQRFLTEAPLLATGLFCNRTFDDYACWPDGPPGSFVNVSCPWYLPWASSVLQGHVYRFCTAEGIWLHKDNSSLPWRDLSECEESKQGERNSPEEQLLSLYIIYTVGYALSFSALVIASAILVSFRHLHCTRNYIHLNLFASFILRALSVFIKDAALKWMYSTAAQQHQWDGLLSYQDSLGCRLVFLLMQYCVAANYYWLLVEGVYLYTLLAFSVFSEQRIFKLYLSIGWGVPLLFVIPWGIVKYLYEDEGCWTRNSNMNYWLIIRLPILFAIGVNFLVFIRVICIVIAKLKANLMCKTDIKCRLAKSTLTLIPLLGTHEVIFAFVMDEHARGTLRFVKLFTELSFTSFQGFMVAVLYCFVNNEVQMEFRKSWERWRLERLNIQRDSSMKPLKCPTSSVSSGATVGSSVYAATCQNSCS
Protocol: cAMP levels are measured using a commercially available cAMP dynamic 2 HTRF kit (Cisbio, Cat #62AM4PEJ), following the two step protocol as per manufacturer's recommendations. In brief; anti-cAMP cryptate (donor fluorophore) and cAMP-d2 (acceptor fluorophore) are made up separately by diluting each 1/20 in conjugate & lysis buffer provided in the kit. 5 μL anti-cAMP cryptate is added to wells of the assay plate, and 5 μL cAMP-d2 is added to wells except non-specific binding (NSB) wells, to which conjugate and lysis buffer are added. […] EC50 values of the synthetic peptides determined in cAMP assays are then determined.

[3] = molecular target: T3, human glucose-dependent insulinotropic peptide receptor (GIPR) (Homo sapiens, UniProt P48546); experiment: cAMP assay, human GIPR cells; conditions: tris-lipidated peptides
T3 construct: expressed in transfected cells
T3 sequence (P48546 22-466): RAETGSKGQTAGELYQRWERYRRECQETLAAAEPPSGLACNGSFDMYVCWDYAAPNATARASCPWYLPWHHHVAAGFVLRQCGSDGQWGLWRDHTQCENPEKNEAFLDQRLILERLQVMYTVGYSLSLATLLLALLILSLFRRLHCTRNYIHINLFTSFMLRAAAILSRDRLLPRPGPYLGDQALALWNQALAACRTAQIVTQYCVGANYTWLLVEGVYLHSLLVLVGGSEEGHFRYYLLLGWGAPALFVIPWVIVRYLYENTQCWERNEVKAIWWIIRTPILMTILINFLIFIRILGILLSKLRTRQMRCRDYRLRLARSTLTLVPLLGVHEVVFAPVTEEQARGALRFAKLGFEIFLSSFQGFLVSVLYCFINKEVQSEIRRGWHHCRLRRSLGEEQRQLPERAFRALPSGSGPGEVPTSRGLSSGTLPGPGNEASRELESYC
How it was run: as §1

[4] = molecular target: T4, human glucagon receptor (GCGR) (Homo sapiens, UniProt P47871); experiment: cAMP assay, human GCGR cells; conditions: tris-lipidated peptides
T4 construct: expressed in transfected cells
T4 sequence (P47871 26-477): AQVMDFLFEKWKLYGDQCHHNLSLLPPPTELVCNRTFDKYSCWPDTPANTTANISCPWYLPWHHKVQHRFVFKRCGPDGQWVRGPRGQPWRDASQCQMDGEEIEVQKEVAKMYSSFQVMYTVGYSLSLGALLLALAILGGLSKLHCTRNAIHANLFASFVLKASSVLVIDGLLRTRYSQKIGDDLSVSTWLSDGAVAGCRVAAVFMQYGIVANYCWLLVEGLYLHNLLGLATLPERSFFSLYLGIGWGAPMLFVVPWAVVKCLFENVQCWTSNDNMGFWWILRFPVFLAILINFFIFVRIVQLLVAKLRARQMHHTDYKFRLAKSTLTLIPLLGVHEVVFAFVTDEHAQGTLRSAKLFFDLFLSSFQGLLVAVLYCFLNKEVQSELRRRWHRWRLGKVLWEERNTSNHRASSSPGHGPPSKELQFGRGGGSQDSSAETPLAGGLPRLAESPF
How it was run: as §1

[5] = mean of n1 and n2, read-out: INS1e assay EC50 Mean pM GLP-1R
[6] = replicate n1, read-out: INS1e assay EC50 GLP-1R n1
[7] = replicate n2, read-out: INS1e assay EC50 GLP-1R n2
[8] = tris-lipidated peptides, replicate n1, read-out: Primary assay EC50 GLP-1R n1
[9] = first replicate, read-out: Primary assay EC50 GIP-R (n1)
[10] = first replicate, read-out: Primary assay EC50 Gluc-R (n1)
[11] = tris-lipidated peptides, mean of n1 and n2, read-out: Primary assay EC50 Mean pM GLP-1R
[12] = tris-lipidated peptides, replicate n2, read-out: Primary assay EC50 GLP-1R n2

SMILES	EC50 [2, 5]	EC50 [2, 6]	EC50 [2, 7]	EC50 [1, 8]	EC50 [3, 9]	EC50 [4, 10]	EC50 [1, 11]	EC50 [1, 12]	also measured
CCCCCCCCCCCC(=O)N[C@@H](CCC(=O)NCCOCCOCC(=O)NCCOCCOCC(=O)NCCCC[C@H](NC(=O)[C@H](C)NC(=O)[C@@H](NC(=O)[C@H](Cc1ccccc1)NC(=O)[C@H](CCC(=O)O)NC(=O)[C@](C)(CCCCN)NC(=O)[C@H](C)NC(=O)[C@H](C)NC(=O)[C@H](CCC(=O)O)NC(=O)CNC(=O)[C@H](CCC(=O)O)NC(=O)[C@H](CC(C)C)NC(=O)[C@H](Cc1ccc(O)cc1)NC(=O)[C@H](CO)NC(=O)[C@H](CO)NC(=O)[C@H](CCCCNC(=O)COCCOCCNC(=O)COCCOCCNC(=O)CC[C@H](NC(=O)CCCCCCCCCCC)C(=O)O)NC(=O)[C@H](CC(=O)O)NC(=O)[C@H](CO)NC(=O)[C@@H](NC(=O)[C@](C)(Cc1ccccc1)NC(=O)[C@H](CO)NC(=O)CNC(=O)[C@H](CCC(=O)O)NC(=O)C(C)(C)NC(=O)[C@@H](N)Cc1c[nH]cn1)[C@@H](C)O)[C@@H](C)CC)C(=O)N[C@H](C(=O)N[C@H](C(=O)N[C@@H](CCC(=O)O)C(=O)NCC(=O)NCC(N)=O)C(C)C)C(C)C)C(=O)O [compound 257] (H-H[Aib]EGS[αMeF]TSDK([AEEA-AEEA-γGlu-Lauroyl])SSYLEGEAA[αMeK]EFIAK([AEEA-AEEA-γGlu-Lauroyl])VVEGG-NH2)	577 pM	812 pM	342 pM	–	–	–	–	–	EC50 ([1]; bis-lipidated peptides, mean of n1 and n2, read-out: Primary assay EC50 Mean pM GLP-1R): 8.4 pM; EC50 ([1]; bis-lipidated peptides, replicate n1, read-out: Primary assay EC50 GLP-1R n1): 4.36 pM; EC50 ([1]; bis-lipidated peptides, replicate n2, read-out: Primary assay EC50 GLP-1R n2): 12.4 pM
CCCCCCCCCCCC(=O)N[C@@H](CCC(=O)NCCOCCOCC(=O)NCCOCCOCC(=O)NCCCC[C@H](NC(=O)[C@H](C)NC(=O)[C@@H](NC(=O)[C@H](CCCC)NC(=O)[C@H](CCC(=O)O)NC(=O)[C@](C)(CCCCN)NC(=O)[C@H](C)NC(=O)[C@H](C)NC(=O)[C@H](CCC(=O)O)NC(=O)CNC(=O)[C@H](CCC(=O)O)NC(=O)[C@H](CC(C)C)NC(=O)[C@H](CCCCNC(=O)COCCOCCNC(=O)COCCOCCNC(=O)CC[C@H](NC(=O)CCCCCCCCCCC)C(=O)O)NC(=O)[C@H](CO)NC(=O)[C@](C)(CO)NC(=O)[C@@H](NC(=O)[C@H](CC(=O)O)NC(=O)[C@H](CO)NC(=O)[C@@H](NC(=O)[C@](C)(Cc1ccccc1)NC(=O)[C@H](CO)NC(=O)CNC(=O)[C@H](CCC(=O)O)NC(=O)C(C)(C)NC(=O)[C@@H](N)Cc1c[nH]cn1)[C@@H](C)O)C(C)C)[C@@H](C)CC)C(=O)N[C@H](C(=O)N[C@H](C(=O)N[C@@H](CCC(=O)O)C(=O)NCC(=O)NCC(N)=O)C(C)C)C(C)C)C(=O)O [compound 407] (H-H[Aib]EGS[αMeF]TSDV[αMeS]SK([AEEA-AEEA-γGlu-Lauroyl])LEGEAA[αMeK]E[Nle]IAK([AEEA-AEEA-γGlu-Lauroyl])VVEGG-NH2)	104 pM	113 pM	95.2 pM	–	–	–	–	–	–
CCCCCCCCCCCC(=O)N[C@@H](CCC(=O)NCCOCCOCC(=O)NCCOCCOCC(=O)NCCCC[C@H](NC(=O)CNC(=O)[C@H](CCC(=O)O)NC(=O)[C@H](CCCCNC(=O)COCCOCCNC(=O)COCCOCCNC(=O)CC[C@H](NC(=O)CCCCCCCCCCC)C(=O)O)NC(=O)[C@H](Cc1ccc(O)cc1)NC(=O)[C@H](CO)NC(=O)[C@](C)(CO)NC(=O)[C@@H](NC(=O)[C@H](CC(=O)O)NC(=O)[C@H](CO)NC(=O)[C@@H](NC(=O)[C@](C)(Cc1ccccc1)NC(=O)[C@H](CO)NC(=O)CNC(=O)[C@H](CCC(=O)O)NC(=O)C(C)(C)NC(=O)[C@@H](N)Cc1c[nH]cn1)[C@@H](C)O)C(C)C)C(=O)N[C@@H](C)C(=O)N[C@@H](C)C(=O)N[C@@](C)(CCCCN)C(=O)N[C@@H](CCC(=O)O)C(=O)N[C@@H](Cc1ccccc1)C(=O)N[C@H](C(=O)N[C@@H](C)C(=O)N[C@@H](Cc1ccccc1)C(=O)N[C@@H](CCCCNC(=O)COCCOCCNC(=O)COCCOCCNC(=O)CC[C@H](NC(=O)CCCCCCCCCCC)C(=O)O)C(=O)N[C@H](C(=O)N[C@@H](CCC(=O)O)C(=O)NCC(=O)NCC(N)=O)C(C)C)[C@@H](C)CC)C(=O)O [compound 484] (H-H[Aib]EGS[αMeF]TSDV[αMeS]SYK([AEEA-AEEA-γGlu-Lauroyl])EGK([AEEA-AEEA-γGlu-Lauroyl])AA[αMeK]EFIAFK([AEEA-AEEA-γGlu-Lauroyl])VEGG-NH2)	–	–	–	163 pM	≥ 19900 pM	≥ 19900 pM	–	–	–
CCCCCCCCCCCC(=O)N[C@@H](CCC(=O)NCCOCCOCC(=O)NCCOCCOCC(=O)NCCCC[C@H](NC(=O)[C@H](CCC(=O)O)NC(=O)CNC(=O)[C@H](CCC(=O)O)NC(=O)[C@H](CCCCNC(=O)COCCOCCNC(=O)COCCOCCNC(=O)CC[C@H](NC(=O)CCCCCCCCCCC)C(=O)O)NC(=O)[C@H](Cc1ccc(O)cc1)NC(=O)[C@H](CO)NC(=O)[C@](C)(CO)NC(=O)[C@@H](NC(=O)[C@H](CC(=O)O)NC(=O)[C@H](CO)NC(=O)[C@@H](NC(=O)[C@](C)(Cc1ccccc1)NC(=O)[C@H](CO)NC(=O)CNC(=O)[C@H](CCC(=O)O)NC(=O)C(C)(C)NC(=O)[C@@H](N)Cc1c[nH]cn1)[C@@H](C)O)C(C)C)C(=O)N[C@@H](C)C(=O)N[C@@](C)(CCCCN)C(=O)N[C@@H](CCC(=O)O)C(=O)N[C@@H](Cc1ccccc1)C(=O)N[C@H](C(=O)N[C@@H](C)C(=O)N[C@@H](Cc1ccccc1)C(=O)N[C@@H](CCCCNC(=O)COCCOCCNC(=O)COCCOCCNC(=O)CC[C@H](NC(=O)CCCCCCCCCCC)C(=O)O)C(=O)N[C@H](C(=O)N[C@@H](CCC(=O)O)C(=O)NCC(=O)NCC(N)=O)C(C)C)[C@@H](C)CC)C(=O)O [compound 485] (H-H[Aib]EGS[αMeF]TSDV[αMeS]SYK([AEEA-AEEA-γGlu-Lauroyl])EGEK([AEEA-AEEA-γGlu-Lauroyl])A[αMeK]EFIAFK([AEEA-AEEA-γGlu-Lauroyl])VEGG-NH2)	–	–	–	167 pM	19600 pM	19600 pM	195 pM	224 pM	–
CCCCCCCCCCCC(=O)N[C@@H](CCC(=O)NCCOCCOCC(=O)NCCOCCOCC(=O)NCCCC[C@H](NC(=O)[C@H](Cc1ccc(O)cc1)NC(=O)[C@H](CO)NC(=O)[C@](C)(CO)NC(=O)[C@@H](NC(=O)[C@H](CC(=O)O)NC(=O)[C@H](CO)NC(=O)[C@@H](NC(=O)[C@](C)(Cc1ccccc1)NC(=O)[C@H](CO)NC(=O)CNC(=O)[C@H](CCC(=O)O)NC(=O)C(C)(C)NC(=O)[C@@H](N)Cc1c[nH]cn1)[C@@H](C)O)C(C)C)C(=O)N[C@@H](CCC(=O)O)C(=O)NCC(=O)N[C@@H](CCC(=O)O)C(=O)N[C@@H](C)C(=O)N[C@@H](C)C(=O)N[C@@](C)(CCCCN)C(=O)N[C@@H](CCCCNC(=O)COCCOCCNC(=O)COCCOCCNC(=O)CC[C@H](NC(=O)CCCCCCCCCCC)C(=O)O)C(=O)N[C@@H](Cc1ccccc1)C(=O)N[C@H](C(=O)N[C@@H](C)C(=O)N[C@@H](Cc1ccccc1)C(=O)N[C@@H](CCCCNC(=O)COCCOCCNC(=O)COCCOCCNC(=O)CC[C@H](NC(=O)CCCCCCCCCCC)C(=O)O)C(=O)N[C@H](C(=O)N[C@@H](CCC(=O)O)C(=O)NCC(=O)NCC(N)=O)C(C)C)[C@@H](C)CC)C(=O)O [compound 486] (H-H[Aib]EGS[αMeF]TSDV[αMeS]SYK([AEEA-AEEA-γGlu-Lauroyl])EGEAA[αMeK]K([AEEA-AEEA-γGlu-Lauroyl])FIAFK([AEEA-AEEA-γGlu-Lauroyl])VEGG-NH2; N-terminus assumed)	–	–	–	165 pM	–	–	212 pM	259 pM	EC50 ([3]; second replicate, read-out: Primary assay EC50 GIP-R (n2)): 19900 pM; EC50 ([4]; second replicate, read-out: Primary assay EC50 Gluc-R (n2)): 19900 pM
